Laboratory results as given in ChEMBL document CHEMBL5223112, “Design, synthesis, and structure-activity relationship of novel RIPK2 inhibitors” (Bioorg Med Chem Lett, 2022).
pIC50, pKd: −log10 of the molar value. Each block holds one molecule with its values, some of them ahead of it.

Columns and labels:
[1] = biological target: Receptor-interacting serine/threonine-protein kinase 2 (Homo sapiens, UniProt O43353); assay: Binding affinity to RIPK2 (unknown origin) assessed as dissociation constant by kinomescan assay
[2] = system: THP-1; assay: Antiinflammatory activity in MDP-stimulated IL-8 production in human THP-1 cells pretreated for 2 hrs followed by MDP stimulation for 6 hrs; assay type: functional, cell-based
[3] = Metabolic stability in human liver microsomes assessed as half life; assay type: ADME
[4] = Metabolic stability in rat liver microsomes assessed as half life; assay type: ADME
[5] = Metabolic stability in mouse liver microsomes assessed as half life; assay type: ADME
[6] = Metabolic stability in dog liver microsomes assessed as half life; assay type: ADME, Canis lupus familiaris
[7] = Metabolic stability in monkey liver microsomes assessed as half life; assay type: ADME, Macaca mulatta; conditions: rhesus monkey
[8] = Metabolic stability in human liver microsomes assessed as intrinsic clearance; assay type: ADME; conditions: read-out: CLH
[9] = Metabolic stability in rat liver microsomes assessed as intrinsic clearance; assay type: ADME; conditions: read-out: CLH
[10] = Metabolic stability in mouse liver microsomes assessed as intrinsic clearance; assay type: ADME; conditions: read-out: CLH
[11] = Metabolic stability in dog liver microsomes assessed as intrinsic clearance; assay type: ADME, Canis lupus familiaris; conditions: read-out: CLH
[12] = Metabolic stability in monkey liver microsomes assessed as intrinsic clearance; assay type: ADME, Macaca mulatta; conditions: rhesus monkey, read-out: CLH
[13] = biological target: T1, CYP1A2 (Homo sapiens, UniProt P05177); assay: Inhibition of CYP1A2 (unknown origin) at 10 uM relative to control; assay type: ADME
T1 sequence (P05177 whole entry): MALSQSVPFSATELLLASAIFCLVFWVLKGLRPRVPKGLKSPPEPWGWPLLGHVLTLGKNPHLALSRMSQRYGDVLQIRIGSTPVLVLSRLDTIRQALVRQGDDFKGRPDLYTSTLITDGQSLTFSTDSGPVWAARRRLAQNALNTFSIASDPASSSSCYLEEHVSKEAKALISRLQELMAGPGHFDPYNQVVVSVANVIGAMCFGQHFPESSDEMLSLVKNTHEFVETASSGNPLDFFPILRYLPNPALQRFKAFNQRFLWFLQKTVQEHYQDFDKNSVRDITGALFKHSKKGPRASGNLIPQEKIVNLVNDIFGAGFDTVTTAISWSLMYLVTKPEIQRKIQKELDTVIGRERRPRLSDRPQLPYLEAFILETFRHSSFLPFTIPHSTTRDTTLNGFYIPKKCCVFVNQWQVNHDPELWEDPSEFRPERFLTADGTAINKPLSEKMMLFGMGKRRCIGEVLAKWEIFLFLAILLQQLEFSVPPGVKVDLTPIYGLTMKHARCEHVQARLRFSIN

[14] = biological target: CYP2C9 (Homo sapiens, UniProt P11712); assay: Inhibition of CYP2C9 (unknown origin) at 10 uM relative to control; assay type: ADME
[15] = biological target: CYP2C19 (Homo sapiens, UniProt P33261); assay: Inhibition of CYP2C19 (unknown origin) at 10 uM relative to control; assay type: ADME
[16] = biological target: CYP2D6 (Homo sapiens, UniProt P10635); assay: Inhibition of CYP2D6 (unknown origin) at 10 uM relative to control; assay type: ADME
[17] = biological target: T2, CYP3A4 (Homo sapiens, UniProt P08684); assay: Inhibition of CYP3A4 (unknown origin) at 10 uM using midazolam as substrate relative to control; assay type: ADME; conditions: probe midazolam
[18] = biological target: T2, CYP3A4; assay: Inhibition of CYP3A4 (unknown origin) at 10 uM using testosterone as substrate relative to control; assay type: ADME; conditions: probe testosterone
[19] = biological target: Voltage-gated inwardly rectifying potassium channel KCNH2 (Homo sapiens, UniProt Q12809); assay: Inhibition of hERG; assay type: toxicity
[20] = biological target: T3, Receptor-interacting serine/threonine-protein kinase 1 (Homo sapiens, UniProt Q13546); assay: Binding affinity to RIPK1 (unknown origin) assessed as dissociation constant by kinomescan assay
T3 sequence (Q13546 whole entry): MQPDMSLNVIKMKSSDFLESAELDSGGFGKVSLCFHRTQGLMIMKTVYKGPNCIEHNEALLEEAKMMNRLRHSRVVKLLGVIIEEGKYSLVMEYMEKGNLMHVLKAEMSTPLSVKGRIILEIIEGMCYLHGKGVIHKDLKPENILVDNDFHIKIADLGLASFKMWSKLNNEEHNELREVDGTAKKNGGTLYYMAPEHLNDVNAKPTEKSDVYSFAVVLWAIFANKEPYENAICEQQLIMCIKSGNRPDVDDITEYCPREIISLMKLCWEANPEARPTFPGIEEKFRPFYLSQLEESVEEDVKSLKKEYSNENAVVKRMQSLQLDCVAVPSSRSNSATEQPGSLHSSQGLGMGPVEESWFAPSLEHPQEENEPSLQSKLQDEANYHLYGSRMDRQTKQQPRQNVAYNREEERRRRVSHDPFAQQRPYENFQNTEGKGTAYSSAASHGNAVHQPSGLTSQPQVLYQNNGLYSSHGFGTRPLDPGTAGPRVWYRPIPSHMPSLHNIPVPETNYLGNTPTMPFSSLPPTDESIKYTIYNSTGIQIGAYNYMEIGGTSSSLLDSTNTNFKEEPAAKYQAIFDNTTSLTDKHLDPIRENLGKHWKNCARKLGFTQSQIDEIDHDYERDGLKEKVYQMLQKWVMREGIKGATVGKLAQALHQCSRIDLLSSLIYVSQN

[21] = biological target: Receptor-interacting serine/threonine-protein kinase 3 (Homo sapiens, UniProt Q9Y572); assay: Binding affinity to RIPK3 (unknown origin) assessed as dissociation constant by kinomescan assay
Sequence of Receptor-interacting serine/threonine-protein kinase 3 (Q9Y572 whole entry): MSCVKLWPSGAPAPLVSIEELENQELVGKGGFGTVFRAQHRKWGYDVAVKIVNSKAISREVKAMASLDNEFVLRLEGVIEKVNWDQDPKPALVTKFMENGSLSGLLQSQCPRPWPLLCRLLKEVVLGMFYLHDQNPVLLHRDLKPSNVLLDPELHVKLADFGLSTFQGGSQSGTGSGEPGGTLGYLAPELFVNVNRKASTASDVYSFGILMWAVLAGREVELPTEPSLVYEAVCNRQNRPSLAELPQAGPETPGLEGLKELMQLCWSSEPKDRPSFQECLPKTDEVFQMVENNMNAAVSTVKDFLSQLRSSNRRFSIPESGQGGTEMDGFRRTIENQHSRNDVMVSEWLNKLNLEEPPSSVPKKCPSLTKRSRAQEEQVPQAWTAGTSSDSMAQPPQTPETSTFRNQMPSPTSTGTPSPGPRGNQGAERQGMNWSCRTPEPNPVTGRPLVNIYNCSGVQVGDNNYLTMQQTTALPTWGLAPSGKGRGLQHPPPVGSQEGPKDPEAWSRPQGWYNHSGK

Sequence of CYP2C19 (P33261 whole entry): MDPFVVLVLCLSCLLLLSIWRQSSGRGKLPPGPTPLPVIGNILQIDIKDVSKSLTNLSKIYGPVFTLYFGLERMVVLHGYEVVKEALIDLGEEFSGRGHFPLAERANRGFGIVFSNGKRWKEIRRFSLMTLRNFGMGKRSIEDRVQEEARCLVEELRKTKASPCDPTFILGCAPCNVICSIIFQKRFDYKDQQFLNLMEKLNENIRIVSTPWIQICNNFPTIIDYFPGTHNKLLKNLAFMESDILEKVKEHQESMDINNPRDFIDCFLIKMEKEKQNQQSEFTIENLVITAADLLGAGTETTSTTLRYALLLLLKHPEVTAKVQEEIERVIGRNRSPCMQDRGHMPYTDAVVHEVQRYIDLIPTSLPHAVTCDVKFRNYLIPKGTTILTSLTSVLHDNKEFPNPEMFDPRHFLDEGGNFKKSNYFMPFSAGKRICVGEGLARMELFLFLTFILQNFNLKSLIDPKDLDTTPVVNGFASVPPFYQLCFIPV
T2 sequence (P08684 whole entry): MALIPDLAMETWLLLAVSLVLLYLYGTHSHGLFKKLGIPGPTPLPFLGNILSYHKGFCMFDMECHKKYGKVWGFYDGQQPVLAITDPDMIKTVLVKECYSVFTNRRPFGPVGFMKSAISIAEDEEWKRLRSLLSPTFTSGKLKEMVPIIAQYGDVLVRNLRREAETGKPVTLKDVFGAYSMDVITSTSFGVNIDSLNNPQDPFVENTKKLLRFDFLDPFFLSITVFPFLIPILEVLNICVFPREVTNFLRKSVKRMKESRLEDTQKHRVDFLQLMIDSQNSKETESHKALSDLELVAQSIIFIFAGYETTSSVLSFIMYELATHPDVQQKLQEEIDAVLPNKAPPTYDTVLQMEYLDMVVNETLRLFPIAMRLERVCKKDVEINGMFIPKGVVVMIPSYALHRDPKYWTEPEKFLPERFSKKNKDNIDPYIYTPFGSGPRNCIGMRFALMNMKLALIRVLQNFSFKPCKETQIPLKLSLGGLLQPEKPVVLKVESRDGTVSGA
Sequence of CYP2C9 (P11712 whole entry): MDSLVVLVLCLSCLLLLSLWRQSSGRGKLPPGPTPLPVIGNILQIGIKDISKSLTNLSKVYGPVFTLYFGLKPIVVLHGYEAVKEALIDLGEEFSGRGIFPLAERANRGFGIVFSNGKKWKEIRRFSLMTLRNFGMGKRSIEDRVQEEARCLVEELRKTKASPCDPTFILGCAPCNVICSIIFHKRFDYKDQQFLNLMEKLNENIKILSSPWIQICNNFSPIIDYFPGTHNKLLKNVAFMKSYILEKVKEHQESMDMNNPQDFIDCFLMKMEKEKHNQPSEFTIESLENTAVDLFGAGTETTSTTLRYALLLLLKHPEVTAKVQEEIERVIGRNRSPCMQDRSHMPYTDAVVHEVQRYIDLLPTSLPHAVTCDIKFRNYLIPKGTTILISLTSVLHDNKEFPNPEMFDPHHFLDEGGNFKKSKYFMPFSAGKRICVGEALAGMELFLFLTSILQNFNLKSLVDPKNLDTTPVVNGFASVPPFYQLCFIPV
Sequence of Receptor-interacting serine/threonine-protein kinase 2 (O43353 whole entry): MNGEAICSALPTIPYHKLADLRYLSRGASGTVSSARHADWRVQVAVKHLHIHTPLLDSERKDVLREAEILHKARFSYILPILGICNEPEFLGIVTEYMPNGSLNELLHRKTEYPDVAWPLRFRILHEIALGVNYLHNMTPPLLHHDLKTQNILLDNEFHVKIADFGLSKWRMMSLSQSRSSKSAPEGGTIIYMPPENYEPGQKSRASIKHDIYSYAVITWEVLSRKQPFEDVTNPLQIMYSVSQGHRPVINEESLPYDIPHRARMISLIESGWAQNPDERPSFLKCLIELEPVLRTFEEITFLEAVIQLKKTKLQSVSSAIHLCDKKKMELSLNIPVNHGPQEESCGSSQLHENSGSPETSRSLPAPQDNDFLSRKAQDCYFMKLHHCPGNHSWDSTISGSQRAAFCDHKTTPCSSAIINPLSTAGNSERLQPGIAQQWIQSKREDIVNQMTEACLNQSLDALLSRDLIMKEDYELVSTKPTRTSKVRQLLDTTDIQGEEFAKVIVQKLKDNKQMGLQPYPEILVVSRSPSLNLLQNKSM
Sequence of CYP2D6 (P10635 whole entry): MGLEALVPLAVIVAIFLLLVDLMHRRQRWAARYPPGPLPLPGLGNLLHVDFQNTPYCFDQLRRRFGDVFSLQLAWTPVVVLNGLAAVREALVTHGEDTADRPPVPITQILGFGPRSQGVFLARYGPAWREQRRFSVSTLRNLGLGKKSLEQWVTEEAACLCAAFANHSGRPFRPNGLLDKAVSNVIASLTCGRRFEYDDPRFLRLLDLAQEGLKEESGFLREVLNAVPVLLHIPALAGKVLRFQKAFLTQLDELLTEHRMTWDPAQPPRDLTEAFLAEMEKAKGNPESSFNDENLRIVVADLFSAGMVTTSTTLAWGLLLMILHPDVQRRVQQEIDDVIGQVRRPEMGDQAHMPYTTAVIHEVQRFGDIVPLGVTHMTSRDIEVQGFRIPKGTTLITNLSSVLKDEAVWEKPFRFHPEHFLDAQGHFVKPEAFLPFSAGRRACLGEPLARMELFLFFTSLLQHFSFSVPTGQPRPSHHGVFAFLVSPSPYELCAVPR
Sequence of Voltage-gated inwardly rectifying potassium channel KCNH2 (Q12809 whole entry): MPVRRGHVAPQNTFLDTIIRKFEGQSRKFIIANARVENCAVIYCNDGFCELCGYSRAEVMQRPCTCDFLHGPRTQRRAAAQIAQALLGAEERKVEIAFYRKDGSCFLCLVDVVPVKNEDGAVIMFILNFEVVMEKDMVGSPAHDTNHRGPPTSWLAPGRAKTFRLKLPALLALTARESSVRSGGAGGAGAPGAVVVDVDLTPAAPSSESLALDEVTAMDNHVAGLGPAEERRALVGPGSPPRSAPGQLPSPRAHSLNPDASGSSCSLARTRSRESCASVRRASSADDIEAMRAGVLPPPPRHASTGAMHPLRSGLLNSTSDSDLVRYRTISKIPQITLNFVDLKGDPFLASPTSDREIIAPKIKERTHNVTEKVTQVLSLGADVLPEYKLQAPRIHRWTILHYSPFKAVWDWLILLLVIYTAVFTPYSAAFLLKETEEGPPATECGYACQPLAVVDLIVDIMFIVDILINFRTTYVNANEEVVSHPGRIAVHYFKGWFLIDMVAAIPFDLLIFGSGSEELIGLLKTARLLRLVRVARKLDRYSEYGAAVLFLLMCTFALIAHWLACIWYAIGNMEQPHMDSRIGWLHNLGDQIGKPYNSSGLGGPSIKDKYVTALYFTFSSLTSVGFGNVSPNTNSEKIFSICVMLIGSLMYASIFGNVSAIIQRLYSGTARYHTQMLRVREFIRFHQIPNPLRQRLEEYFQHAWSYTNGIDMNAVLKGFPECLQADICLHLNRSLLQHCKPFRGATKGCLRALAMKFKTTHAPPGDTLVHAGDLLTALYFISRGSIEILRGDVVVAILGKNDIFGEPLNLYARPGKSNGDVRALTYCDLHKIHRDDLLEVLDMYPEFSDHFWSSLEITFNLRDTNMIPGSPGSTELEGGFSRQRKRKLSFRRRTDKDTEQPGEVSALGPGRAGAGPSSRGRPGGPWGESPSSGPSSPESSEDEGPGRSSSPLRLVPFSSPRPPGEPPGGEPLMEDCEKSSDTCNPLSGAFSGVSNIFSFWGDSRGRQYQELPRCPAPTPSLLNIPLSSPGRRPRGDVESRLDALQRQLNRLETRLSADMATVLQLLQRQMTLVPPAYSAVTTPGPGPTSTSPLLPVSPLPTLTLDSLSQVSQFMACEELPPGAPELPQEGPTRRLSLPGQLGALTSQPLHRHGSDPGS

pKd [1]: 9.11
pIC50 [2]: 8.87
SMILES: CC(C)(C)S(=O)(=O)c1cc2c(Nc3ccc4scnc4c3)ncnc2cc1OCCOP(=O)(O)O

SMILES: CCOC1=CS(=O)(=O)c2cc3c(Nc4ccc5scnc5c4)ncnc3cc21
pKd [1]: 8.23
half-life [3]: 189 min
half-life [4]: 142 min
half-life [5]: 62.7 min
half-life [6]: 25.9 min
half-life [7]: 38 min
CLint scaled [8]: 9.19 mL/min/kg
CLint scaled [9]: 17.5 mL/min/kg
CLint scaled [10]: 87 mL/min/kg
CLint scaled [11]: 133 mL/min/kg
CLint scaled [12]: 53.3 mL/min/kg
inhibition at 10 µM [13]: 18.1%
inhibition at 10 µM [14]: 10.7%
inhibition at 10 µM [15]: 16.6%
inhibition at 10 µM [16]: -23.2%
inhibition at 10 µM [17]: 0%
inhibition at 10 µM [18]: -0.93%
pIC50 [19]: < 5.00
pIC50 [2]: 8.70
pKd [20]: < 4.52
pKd [21]: 7.37

pKd [1]: 7.57
SMILES: COC1=CS(=O)(=O)c2cc3c(Nc4ccc5scnc5c4)ncnc3cc21

pKd [1]: 8.09
half-life [3]: 53 min
half-life [4]: 59 min
half-life [5]: 23.7 min
half-life [6]: 4.61 min
half-life [7]: 20.9 min
CLint scaled [8]: 32.8 mL/min/kg
CLint scaled [9]: 42.1 mL/min/kg
CLint scaled [10]: 230 mL/min/kg
CLint scaled [11]: 749 mL/min/kg
CLint scaled [12]: 97 mL/min/kg
inhibition at 10 µM [13]: 14.9%
inhibition at 10 µM [14]: -1.42%
inhibition at 10 µM [15]: 11.5%
inhibition at 10 µM [16]: -15.7%
inhibition at 10 µM [17]: -3.32%
inhibition at 10 µM [18]: 6.88%
SMILES: CC1=C(C)S(=O)(=O)c2cc3c(Nc4ccc5scnc5c4)ncnc3cc21

pKd [1]: 7.85
SMILES: CC1=CS(=O)(=O)c2cc3c(Nc4ccc5scnc5c4)ncnc3cc21

pKd [1]: 7.26
SMILES: CC1=Cc2cc3ncnc(Nc4ccc5scnc5c4)c3cc2S1(=O)=O

pKd [1]: 6.49
SMILES: O=S1(=O)C=C(C2CC2)c2cc3ncnc(Nc4ccc5nc[nH]c5c4)c3cc21

pKd [1]: 7.85
SMILES: O=S1(=O)C=C(C2CC2)c2cc3ncnc(Nc4cc(O)ccc4F)c3cc21

pKd [1]: 8.00
SMILES: O=S1(=O)C=C(C2CC2)c2cc3ncnc(Nc4n[nH]c5ccc(F)cc45)c3cc21

pKd [1]: 6.26
SMILES: O=S1(=O)C=C(c2ccc(F)cc2)c2cc3ncnc(Nc4ccc5scnc5c4)c3cc21

pKd [1]: 8.48
half-life [3]: 64.3 min
half-life [4]: 61 min
half-life [5]: 15.9 min
half-life [6]: 10.8 min
half-life [7]: 28.5 min
CLint scaled [8]: 27 mL/min/kg
CLint scaled [9]: 40.8 mL/min/kg
CLint scaled [10]: 344 mL/min/kg
CLint scaled [11]: 320 mL/min/kg
CLint scaled [12]: 71 mL/min/kg
inhibition at 10 µM [13]: 19.9%
inhibition at 10 µM [14]: 11.9%
inhibition at 10 µM [15]: 40.6%
inhibition at 10 µM [16]: -13.6%
inhibition at 10 µM [17]: 14.9%
inhibition at 10 µM [18]: 14.3%
SMILES: O=S1(=O)C=C(C2CC2)c2cc3ncnc(Nc4ccc5scnc5c4)c3cc21

pKd [1]: 6.96
SMILES: O=S1(=O)C=C(c2ccccc2)c2cc3ncnc(Nc4ccc5scnc5c4)c3cc21

pKd [1]: 8.00
SMILES: Cc1[nH]nc(Nc2ncnc3cc4c(cc23)S(=O)(=O)C=C4C2CC2)c1C

pKd [1]: 8.00
SMILES: O=S1(=O)C=C(C2CC2)c2cc3ncnc(Nc4ccc5nn[nH]c5c4)c3cc21

pKd [1]: 7.62
SMILES: CCOC1=C(C)S(=O)(=O)c2cc3c(Nc4ccc5scnc5c4)ncnc3cc21

pKd [1]: 7.15
SMILES: Cc1ccc(O)cc1Nc1ncnc2cc3c(cc12)S(=O)(=O)C=C3C1CC1

pKd [1]: 5.92
SMILES: O=S1(=O)C=C(C2CC2)c2cc3ncnc(Nc4ccc5cc[nH]c5c4)c3cc21

pKd [1]: 6.16
SMILES: CC1=Cc2cc3nc(C)nc(Nc4ccc5scnc5c4)c3cc2S1(=O)=O
